Assay results reported in the supplement of paper PMC10307832.

Experiments:
Assay in all cases: relative viability (nuclei count vs DMSO), 5 days (fraction); higher = more cells survive
NCI-H2087 = test system: NCI-H2087
How it was run: (§1)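 After 5 days of treatment, lung cancer cells in 1536-well plates were fixed and stained in a single step (final 0.05% Triton X-100, 1% formaldehyde, 1 ug/ml Hoechst) and their nuclei counted on 4× images. Treatment had been applied by pin tool the day after seeding as one drug alone or as a fixed anchor-drug dose with five library-drug doses (not always all listed) in √10 steps. Relative viability is the nuclei count of treated wells divided by that of vehicle wells, and values are medians of duplicate plates.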

201T = test system: 201T
How it was run: as §1

NCI-H1437 = test system: NCI-H1437
How it was run: as §1

NCI-H1666 = test system: NCI-H1666
How it was run: as §1

NCI-H2342 = test system: NCI-H2342
How it was run: as §1

LCLC-97TM1 = test system: LCLC-97TM1
How it was run: as §1

EKVX = test system: EKVX
How it was run: as §1

EPLC-272H = test system: EPLC-272H
How it was run: as §1

HCC-827 = test system: HCC-827
How it was run: as §1

LOU-NH91 = test system: LOU-NH91
How it was run: as §1

COR-L 105 = test system: COR-L 105
How it was run: as §1

HCC-44 = test system: HCC-44
How it was run: as §1

COc1cc(N2CCC(C(N)=O)CC2)ccc1Nc1nc(N)c(Cl)c(Nc2ccccc2S(=O)(=O)C(C)C)n1 [HG-5-88-01] + Nc1nc2[nH]cc(CCc3ccc(C(=O)N[C@@H](CCC(=O)O)C(=O)O)cc3)c2c(=O)[nH]1 [Pemetrexed] (partner 0.2 µM)
relative viability (NCI-H2087; first compound 0.04 µM): 0.664 | relative viability (NCI-H2087; first compound 0.1265 µM): 0.689 | relative viability (NCI-H2087; first compound 0.4 µM): 0.67 | relative viability (NCI-H2087; first compound 1.265 µM): 0.651 | relative viability (NCI-H2087; first compound 4 µM): 0.715 | relative viability (201T; first compound 0.04 µM): 0.301 | relative viability (201T; first compound 0.1265 µM): 0.325 | relative viability (201T; first compound 1.265 µM): 0.332 | relative viability (201T; first compound 4 µM): 0.272 | relative viability (NCI-H1437; first compound 0.04 µM): 0.296 | relative viability (NCI-H1437; first compound 0.1265 µM): 0.334 | relative viability (NCI-H1437; first compound 0.4 µM): 0.267 | relative viability (NCI-H1437; first compound 1.265 µM): 0.327 | relative viability (NCI-H1437; first compound 4 µM): 0.277 | relative viability (NCI-H1666; first compound 0.04 µM): 0.893 | relative viability (NCI-H1666; first compound 0.1265 µM): 0.762 | relative viability (NCI-H1666; first compound 0.4 µM): 0.828 | relative viability (NCI-H1666; first compound 1.265 µM): 0.732 | relative viability (NCI-H1666; first compound 4 µM): 0.592 | relative viability (NCI-H2342; first compound 0.04 µM): 0.664 | relative viability (NCI-H2342; first compound 0.1265 µM): 0.769 | relative viability (NCI-H2342; first compound 0.4 µM): 0.704 | relative viability (NCI-H2342; first compound 4 µM): 0.856 | relative viability (LCLC-97TM1; first compound 0.04 µM): 0.208 | relative viability (LCLC-97TM1; first compound 0.1265 µM): 0.179 | relative viability (LCLC-97TM1; first compound 0.4 µM): 0.132 | relative viability (LCLC-97TM1; first compound 1.265 µM): 0.155 | relative viability (LCLC-97TM1; first compound 4 µM): 0.131 | relative viability (EKVX; first compound 0.04 µM): 0.468 | relative viability (EKVX; first compound 0.1265 µM): 0.407 | relative viability (EKVX; first compound 0.4 µM): 0.301 | relative viability (EKVX; first compound 4 µM): 0.352 | relative viability (EPLC-272H; first compound 0.04 µM): 0.341 | relative viability (EPLC-272H; first compound 0.1265 µM): 0.262 | relative viability (EPLC-272H; first compound 0.4 µM): 0.319 | relative viability (EPLC-272H; first compound 1.265 µM): 0.307 | relative viability (EPLC-272H; first compound 4 µM): 0.0795 | relative viability (HCC-827; first compound 0.04 µM): 0.24 | relative viability (HCC-827; first compound 0.1265 µM): 0.262 | relative viability (HCC-827; first compound 0.4 µM): 0.216 | relative viability (HCC-827; first compound 1.265 µM): 0.141 | relative viability (HCC-827; first compound 4 µM): 0.193 | relative viability (LOU-NH91; first compound 0.04 µM): 0.38 | relative viability (LOU-NH91; first compound 0.1265 µM): 0.44 | relative viability (LOU-NH91; first compound 0.4 µM): 0.376 | relative viability (LOU-NH91; first compound 1.265 µM): 0.456 | relative viability (LOU-NH91; first compound 4 µM): 0.522 | relative viability (COR-L 105; first compound 0.04 µM): 1.02 | relative viability (COR-L 105; first compound 0.1265 µM): 1.21 | relative viability (COR-L 105; first compound 0.4 µM): 1.18 | relative viability (COR-L 105; first compound 1.265 µM): 0.989 | relative viability (COR-L 105; first compound 4 µM): 0.899 | relative viability (HCC-44; first compound 0.04 µM): 0.596 | relative viability (HCC-44; first compound 0.1265 µM): 0.662 | relative viability (HCC-44; first compound 0.4 µM): 0.538 | relative viability (HCC-44; first compound 1.265 µM): 0.699 | relative viability (HCC-44; first compound 4 µM): 0.69
